Source: article PMC2742306 (Molecular cell, 2009)
Positions count from the first letter of the chain named. Residues, ends and D or L forms follow the SMILES beside them.

Legend:
[1] = biological target: T1, K243D/M319A double mutant of DegS (Escherichia coli, UniProt P0AEE3, K243D/M319A); assay: Global fit to MWC allosteric model, K243D/M319A DegS; format: biochemical, E. coli
M319A DegS [2] = biological target: T2, M319A DegS (Escherichia coli, UniProt P0AEE3, M319A); assay: OMP-peptide activation of RseA cleavage by M319A DegS; format: biochemical, E. coli
K243D mutant of DegS [3] = biological target: T3, K243D mutant of DegS (Escherichia coli, UniProt P0AEE3, K243D); format: biochemical, E. coli
[4] = biological target: T1, K243D/M319A double mutant of DegS; assay: OMP-peptide activation of RseA cleavage by K243D/M319A DegS; format: biochemical, E. coli
D320A DegS [5] = biological target: T4, D320A DegS (Escherichia coli, UniProt P0AEE3, D320A); assay: OMP-peptide activation of RseA cleavage by D320A DegS; format: biochemical, E. coli
wild-type DegS [6] = biological target: T5, wild-type DegS (Escherichia coli, UniProt P0AEE3); format: biochemical, E. coli
wild-type DegS [7] = biological target: T5, wild-type DegS; format: biochemical, E. coli; settings: wild-type DegS 0.5 μM trimer, YYF 300 μM
M319A DegS [8] = biological target: T2, M319A DegS; assay: Global fit to MWC allosteric model, M319A DegS; format: biochemical, E. coli
D320A DegS [9] = biological target: T4, D320A DegS; format: biochemical, E. coli
K243D mutant of DegS [10] = biological target: T3, K243D mutant of DegS; assay: OMP-peptide activation of RseA cleavage by K243D DegS; format: biochemical, E. coli
K243D mutant of DegS [11] = biological target: T3, K243D mutant of DegS; assay: Global fit to MWC allosteric model, K243D DegS; format: biochemical, E. coli
wild-type DegS [12] = biological target: T5, wild-type DegS; assay: OMP-peptide activation of RseA cleavage by wild-type DegS; format: biochemical, E. coli
D320A DegS [13] = biological target: T4, D320A DegS; assay: Global fit to MWC allosteric model, D320A DegS; format: biochemical, E. coli
wild-type DegS [14] = biological target: T5, wild-type DegS; format: biochemical, E. coli; settings: wild-type DegS 0.9 μM trimer; 20 μM rhodamine-FP; saturating peptide
[15] = biological target: T1, K243D/M319A double mutant of DegS; format: biochemical, E. coli; settings: saturating peptide
[16] = biological target: T6, DegS K243D (residues 27–355, N-terminal His6 tag) (E. coli, UniProt P0AEE3 27-355, K243D); assay: cell-based or functional assay
T6 sequence (looked up): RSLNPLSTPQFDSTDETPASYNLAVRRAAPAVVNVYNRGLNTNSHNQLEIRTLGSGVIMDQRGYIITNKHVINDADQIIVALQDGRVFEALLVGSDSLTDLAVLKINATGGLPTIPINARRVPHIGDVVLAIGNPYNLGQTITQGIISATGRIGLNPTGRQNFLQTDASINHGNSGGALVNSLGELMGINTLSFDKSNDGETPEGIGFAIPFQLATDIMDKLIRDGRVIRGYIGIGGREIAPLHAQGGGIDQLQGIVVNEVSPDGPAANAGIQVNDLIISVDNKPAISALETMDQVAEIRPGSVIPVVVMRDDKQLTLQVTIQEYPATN

[17] = biological target: T7, DegS K243D/D320A double mutant (residues 27–355, N-terminal His6 tag) (E. coli, UniProt P0AEE3 27-355, K243D | D320A); assay: cell-based or functional assay
T7 sequence (looked up): T6 sequence (looked up) with D294A

[18] = biological target: T8, DegS K243D/M319A double mutant (residues 27–355, N-terminal His6 tag) (E. coli, UniProt P0AEE3 27-355, K243D | M319A); assay: cell-based or functional assay
T8 sequence (looked up): T6 sequence (looked up) with M293A

[19] = biological target: T9, DegS D320A (residues 27–355, N-terminal His6 tag) (E. coli, UniProt P0AEE3 27-355, D320A); assay: cell-based or functional assay
T9 sequence (looked up): T6 sequence (looked up) with D217K, D294A

[20] = M319A, MWC global fit, RseA, not peptide, binding
[21] = K243D, MWC global fit, RseA, not peptide, binding
[22] = D320A, MWC global fit, RseA, not peptide, binding

T5 sequence (P0AEE3 27-355): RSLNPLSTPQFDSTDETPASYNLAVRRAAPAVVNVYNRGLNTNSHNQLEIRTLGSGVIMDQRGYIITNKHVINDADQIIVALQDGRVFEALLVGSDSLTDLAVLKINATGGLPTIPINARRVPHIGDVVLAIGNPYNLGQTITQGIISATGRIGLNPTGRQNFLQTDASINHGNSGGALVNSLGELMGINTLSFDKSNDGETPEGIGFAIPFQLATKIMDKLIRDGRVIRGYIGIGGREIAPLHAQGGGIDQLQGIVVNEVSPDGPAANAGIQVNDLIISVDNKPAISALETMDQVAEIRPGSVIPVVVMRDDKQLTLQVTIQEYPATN
T4 sequence (P0AEE3 27-355 D320A): as the sequence (P0AEE3 27-355) above, with D294A counted along it
T1 sequence (P0AEE3 27-355 K243D/M319A): as the sequence (P0AEE3 27-355) above, with K217D, M293A counted along it
T2 sequence (P0AEE3 27-355 M319A): as the sequence (P0AEE3 27-355) above, with M293A counted along it

Molecule: N[C@@H](Cc1ccc(O)cc1)C(=O)N[C@@H](Cc1ccc(O)cc1)C(=O)N[C@@H](Cc1ccccc1)C(=O)O [YYF] (H-Tyr-Tyr-Phe-OH)
- KRS, dissociation constant of RseA substrate for R-state subunit ([1]; RseA, not peptide, binding): 150 µM
- KTS, dissociation constant of RseA substrate for T-state subunit ([1]; RseA, not peptide, binding): 505 µM
- L0, equilibrium constant T/R of unliganded enzyme ([1]; enzyme parameter, peptide-independent): 90
- KTP/KRP ([1]; peptide preference for relaxed state): 2.1
- kr, rate constant for cleavage of RseA by substrate-bound R-state subunits ([1]; same value for all enzymes and peptides): 3.3 s⁻¹
- EC50 (M319A DegS [2]): 3.2 ± 0.4 µM
- Hill Constant (peptide activation) (M319A DegS [2]; M319A, 200 μM RseA): 1.1 ± 0.1
- Maximum Activity (RseA cleavage) (M319A DegS [2]; M319A, 200 μM RseA, 23 °C, pH 8.3, average of two or more determinations): 120 ± 20 M⁻¹ s⁻¹
- decrease of half-maximal activation concentration relative to wild-type DegS (M319A DegS [2]; M319A, lower than wild-type): 10 fold
- decrease of peptide-activated activity relative to wild-type DegS (M319A DegS [2]; M319A, saturating YYF, lower than wild-type value): 20 fold
- Vmax (RseA cleavage) (K243D mutant of DegS [3]; K243D 0.3 μM trimer, saturating peptide (DNRDGNVYYF 30 μM), 23 °C, pH 8.3): 2.3 ± 0.1 s^−1enz^−1
- Vmax relative to wild-type DegS (K243D mutant of DegS [3]; K243D, saturating YYF): roughly within error for wild-type and the mutants
- Hill Constant (RseA substrate) (K243D mutant of DegS [3]; K243D, saturating peptide): 1.3 ± 0.1
- EC50 [4]: 0.7 ± 0.2 µM
- Hill Constant (peptide activation) ([4]; K243D/M319A, 200 μM RseA): 1.2 ± 0.1
- Maximum Activity (RseA cleavage) ([4]; K243D/M319A, 200 μM RseA, 23 °C, pH 8.3, average of two or more determinations): 2700 ± 400 M⁻¹ s⁻¹
- EC50 (D320A DegS [5]): 4.8 ± 1.2 µM
- Hill Constant (peptide activation) (D320A DegS [5]; D320A, 200 μM RseA): 1.4 ± 0.1
- activation relative to wild-type DegS (D320A DegS [5]; D320A, single substrate concentration): only marginally better than wild-type DegS
- L0, equilibrium constant T/R of unliganded enzyme (wild-type DegS [6]; MWC global fit, enzyme parameter, peptide-independent): 15000
- KTP/KRP (wild-type DegS [6]; MWC global fit, peptide preference for relaxed state): 12.3
- kr, rate constant for cleavage of RseA by substrate-bound R-state subunits (wild-type DegS [6]; MWC global fit, same value for all enzymes and peptides): 3.3 s⁻¹
- DegS molecules in active conformation (wild-type DegS [6]; saturating peptide and saturating RseA substrate, MWC model): 83%
- Hill Constant (RseA substrate) (wild-type DegS [7]): 1.4 ± 0.2
- Vmax (RseA cleavage) (wild-type DegS [7]; 23 °C, pH 8.3): 2.6 ± 0.2 s^−1enz^−1
- KRS, dissociation constant of RseA substrate for R-state subunit (M319A DegS [8]; [20]): 150 µM
- KTS, dissociation constant of RseA substrate for T-state subunit (M319A DegS [8]; [20]): 505 µM
- L0, equilibrium constant T/R of unliganded enzyme (M319A DegS [8]; M319A, MWC global fit, enzyme parameter, peptide-independent): 5500
- KTP/KRP (M319A DegS [8]; M319A, MWC global fit, peptide preference for relaxed state): 2.7
- kr, rate constant for cleavage of RseA by substrate-bound R-state subunits (M319A DegS [8]; M319A, MWC global fit, same value for all enzymes and peptides): 3.3 s⁻¹
- reduction of (KTP/KRP)^3 relative to wild-type (M319A DegS [8]; M319A, MWC model): ~100 fold
- enzymes in active conformation (M319A DegS [8]; M319A, saturating peptide and substrate, MWC model): about 10%
- tighter binding to tense M319A than to tense wild-type DegS (M319A DegS [8]; MWC modeling): about 20 fold
- Vmax (RseA cleavage) (D320A DegS [9]; D320A 0.3 μM trimer, saturating peptide (DNRDGNVYYF 30 μM), 23 °C, pH 8.3): 3.1 ± 0.3 s^−1enz^−1
- Vmax relative to wild-type DegS (D320A DegS [9]; D320A, saturating YYF): roughly within error for wild-type and the mutants
- Hill Constant (RseA substrate) (D320A DegS [9]; D320A, saturating peptide): 1.2 ± 0.1
- EC50 (K243D mutant of DegS [10]): 6.4 ± 1.6 µM
- Hill Constant (peptide activation) (K243D mutant of DegS [10]; K243D, 200 μM RseA): 1.4 ± 0.2
- activation relative to wild-type DegS (K243D mutant of DegS [10]; K243D, single substrate concentration): only marginally better than wild-type DegS
- reduction of (KTP/KRP)^3 relative to wild-type (K243D mutant of DegS [11]; K243D (range given for K243D and D320A together), MWC model): 30–70 fold
- KRS, dissociation constant of RseA substrate for R-state subunit (K243D mutant of DegS [11]; [21]): 150 µM
- KTS, dissociation constant of RseA substrate for T-state subunit (K243D mutant of DegS [11]; [21]): 505 µM
- L0, equilibrium constant T/R of unliganded enzyme (K243D mutant of DegS [11]; K243D, MWC global fit, enzyme parameter, peptide-independent): 180
- KTP/KRP (K243D mutant of DegS [11]; K243D, MWC global fit, peptide preference for relaxed state): 3.0
- kr, rate constant for cleavage of RseA by substrate-bound R-state subunits (K243D mutant of DegS [11]; K243D, MWC global fit, same value for all enzymes and peptides): 3.3 s⁻¹
- enzymes in active conformation (K243D mutant of DegS [11]; K243D, saturating peptide and RseA, MWC model): about 85%
- EC50 (wild-type DegS [12]): 29 ± 3 µM
- displacement in concentration between YYF and YQF activation curves (wild-type DegS [12]; wild-type DegS): ~10 fold
- Hill Constant (peptide activation) (wild-type DegS [12]; wild-type DegS, 200 μM RseA): 1.7 ± 0.1
- reduction of (KTP/KRP)^3 relative to wild-type (D320A DegS [13]; D320A (range given for K243D and D320A together), MWC model): 30–70 fold
- KRS, dissociation constant of RseA substrate for R-state subunit (D320A DegS [13]; [22]): 150 µM
- KTS, dissociation constant of RseA substrate for T-state subunit (D320A DegS [13]; [22]): 505 µM
- L0, equilibrium constant T/R of unliganded enzyme (D320A DegS [13]; D320A, MWC global fit, enzyme parameter, peptide-independent): 350
- KTP/KRP (D320A DegS [13]; D320A, MWC global fit, peptide preference for relaxed state): 4.1
- kr, rate constant for cleavage of RseA by substrate-bound R-state subunits (D320A DegS [13]; D320A, MWC global fit, same value for all enzymes and peptides): 3.3 s⁻¹
- enzymes in active conformation (D320A DegS [13]; D320A, saturating peptide and RseA, MWC model): about 85%
- rate of rhodamine-FP modification in presence of peptide (order) (wild-type DegS [14]): fastest
- Hill Constant (RseA substrate) [15]: 1.2 ± 0.1
- Vmax (RseA cleavage) ([15]; 23 °C, pH 8.3): 2.1 ± 0.2 s^−1enz^−1

B1: 35S-labeled variant of the periplasmic domain of E. coli RseA (residues 121–216) with a C-terminal His6 tag (domain or fragment, UniProt P0AFX7 121-216, looked up)
chain: YNGQSETSQQPETPVFNTLPMMGKASPVSLGVPSEATANNGQQQQVQEQRRRINAMLQDYELQRRLHSEQLQFEQAQTQQAAVQVPGIQTLGTQSQ
modifications: 35S-labeled
- KM of RseA cleavage with saturating YYF peptide [16]: 440 µM
- KM of RseA cleavage with saturating … peptide [16]: 580 µM
- KM of RseA cleavage with saturating … peptide [17]: 630 µM
- KM of RseA cleavage with saturating YYF peptide [18]: 490 µM
- KM of RseA cleavage with saturating … peptide [18]: 840 µM
- KM of RseA cleavage with saturating YYF peptide [19]: 430 µM
- KM of RseA cleavage with saturating … peptide [19]: 520 µM
